The text below walks through data of patent US20220127297A1, “Novel Antibacterial 3"-Derivatives Of 4,6-Disubstituted 2,5-Dideoxystreptamine Aminoglycoside Antibiotics” (AGILeBiotics B.V., priority 2018, published 2022).

For the assay, the system named is E. faecalis DSM 2570. Put plainly: MIC 50, broth micro-dilution, DSM strains. The assay is classed as cell-based, Enterococcus faecalis. The source says: 3.2 Against Selected Bacteria of the ESKAPE Panel and Enterococcus faecalis (DSM Strains)
Tested reference compounds. Amikacin sulfate (Cat. No. 01693, Chem-Impex), Gentamicin sulfate (Cat. No. G4918, Sigma Aldrich).
Microbial strains. Enterococcus faecalis DSM 2570, Klebsiella pneumoniae DSM 26371, Acinetobacter baumannii DSM 105126, Enterobacter cloacae 3MRGN (clinical bronchial aspirate isolate).
Culture media and equipment. BBL™ Mueller Hinton Broth 2 (Lot. BCBW1143, Cat. No. 70192, Sigma); Trypcase Soy Blood-agar plates (Cat. No. 43001, Biomérieux); Cryoinstant (contains 15% glycerol; Cat. No. 822070ZA, VWR International); GasPak™ EZ Standard Incubation Container (Cat. No. 260671, Becton Dickinson); GasPak™ EZ Campy Container System Sachets (Cat. No. 260680, Becton Dickinson); 96-well deep well plate, 1 mL (Cat. No. 0030506.200, Eppendorf); Plate lid (Cat. No. 0030131.525, Eppendorf); 96-well plate, F-bottom (Cat. No. 260860, Nunc); Incubator (Sartorius Certomat BS-1); Laminar flow (Heraeus HS12); UV/VIS meter (Perkin Elmer Lambda Bio+); Platereader (Tecan Infinite M200 Pro).
Compound preparation. Compounds were prepared in MH2 media at a concentration of 5 mM and stored at 4° C. For testing, solutions of 128 μM were prepared in MH2, for tests against E. faecalis a solution of 512 μM was prepared. Out of these working solutions, 400 μL was transferred to wells in the first column of 96-well deep well plates. Each compound was transferred in triplicate. Plates were previously filled with 200 μL of MH2 media in all wells except for the wells in the first column. After compound and antibiotic addition, the compounds were serial two-fold diluted by transferring 200 μL from the first to the second column, then from the second to the third column and so on. Finally, 200 μL was removed from the last column.
Inoculum preparation. Microorganisms used were all revived from 15% glycerol storage in Croinstant tubes at −28° C. by plating them on blood agar plates. A. baumanni, and E. cloacae were grown aerobically at 37° C., E. faecalis was grown microaerophilically at 37° C., and K. pneumoniae was grown aerobically at 37° C. Plates were stored at 4° C. for up to two weeks, after which new plates were prepared from −28° C. A single colony was inoculated in MH2 media and grown at 37° C. and 200 rpm to an optical density (measured by UV/Vis spectroscopy) of 0.6-0.8 at 600 nm. Out of these suspensions, actual inoculums were prepared by diluting them to an optical density of 0.1 in MH2 media. From these inoculums, 200 μL was transferred to each well, resulting in a final compound concentration range of 64 μM-31.3 nM for, K. pneumoniae, A. baumanni, and E. cloacae, and 256 μM-125 nM for E. faecalis. Plates inoculated with E. faecalis were placed inside a GasPak™ Container System with GasPak™ Campy Container System sachets. All plates were incubated at 200 rpm for 18 h under the microorganism culturing conditions mentioned above.
MIC determination. After 18 h of growth, 200 μL was transferred to a 96-well F-bottom plate. The optical density was determined by a plate reader at 600 nm, with 10 s shaking before reading. Triplicate measurements were averaged, and a growth curve was plotted in Excel. The first column in which the growth reached half the value of maximum growth was determined as the MIC50 value for that particular compound.
MIC50. The MIC50 of a compound was assigned at which the bacterial growth reached half the value of maximum growth.

Setting [1] is: Enterococcus faecalis, DSM2570, read-out: MIC 50.

SMILES strings stand for the structures. ≈ marks a conversion by molar mass, not a printed value. Read-outs that look alike come from different tables or passages of the source.

On to `CC(C)(C)CCNC(=N)NC1[C@@H](O)C(OC2[C@@H](F)[C@H](O[C@H]3OC(CN)[C@@H](O)CC3N)C(N)C[C@H]2NC(=O)[C@@H](O)CCN)O[C@H](CO)[C@H]1O` (stereo partly shown) [ABX5025, Tobra-AHB-F-Gua 2-tBu-ethyl], for which the MIC50 under setting [1] came to 16 µM (≈ 11.1 µg/mL).
With `N=C(NC[C@@H]1CNCCO1)NC1[C@@H](O)C(OC2[C@@H](F)[C@H](O[C@H]3OC(CN)[C@@H](O)CC3N)C(N)C[C@H]2NC(=O)[C@@H](O)CCN)O[C@H](CO)[C@H]1O` (stereo partly drawn) [ABX5040, Tobra-AHB-F-Gua (S) morpholin-2-yl methyl], under setting [1], the MIC50 worked out at 16 µM (≈ 11.4 µg/mL).
For `C[C@@H](N)CCNC(=N)NC1[C@@H](O)C(OC2[C@@H](F)[C@H](O[C@H]3OC(CN)[C@@H](O)CC3N)C(N)C[C@H]2NC(=O)[C@@H](O)CCN)O[C@H](CO)[C@H]1O` (stereo partly drawn) [ABX5047, Tobra-AHB-F-Gua (R) 3-amino-butyl], the MIC50 under setting [1] lay within 2 to 4 µM (≈ 1.37 to 2.74 µg/mL).
Still for that read-out and setting: as for `N=C(NCCCO)NC1[C@@H](O)C(OC2[C@@H](F)[C@H](O[C@H]3OC(CN)[C@@H](O)CC3N)C(N)C[C@H]2NC(=O)[C@@H](O)CCN)O[C@H](CO)[C@H]1O` (stereo partly shown) [ABX5041, Tobra-AHB-F-Gua 3-hydroxy-propyl], the figure is 4 to 8 µM (≈ 2.68 to 5.37 µg/mL); as for `N=C(NCC1CCCO1)NC1[C@@H](O)C(OC2[C@@H](F)[C@H](O[C@H]3OC(CN)[C@@H](O)CC3N)C(N)C[C@H]2NC(=O)[C@@H](O)CCN)O[C@H](CO)[C@H]1O` (stereo partly shown) [ABX5046, Tobra-AHB-F-Gua tetrahydrofuran-2-yl methyl], 8 to 16 µM (≈ 5.57 to 11.1 µg/mL).
Regarding `NCC[C@H](O)C(=O)N[C@@H]1C[C@H](N)[C@@H](O[C@H]2O[C@H](CN)[C@@H](O)[C@@H](O)[C@H]2O)[C@H](O)[C@H]1O[C@H]1O[C@H](CO)[C@@H](O)[C@H](N)[C@H]1O` [ABX3002, 3′Epi-KanaA-AHB], the “MIC50” value was determined as 128 µM (≈ 75 µg/mL).
Turning to `N=C(NCCN)NC1C(O)[C@@H](CO)OC(OC2C(F)[C@H](O[C@H]3OC(CN)[C@@H](O)CC3N)C(N)C[C@H]2NC(=O)[C@@H](O)CCN)[C@@H]1O` (stereo partly shown) [ABX5020, Tobra-AHB-F-Gua-2-amino-ethyl], the MIC50 under setting [1] was 4 to 8 µM (≈ 2.62 to 5.25 µg/mL).
Consider `N=C(N)N[C@@H]1[C@@H](O)[C@@H](O[C@@H]2[C@@H](O)[C@H](O[C@H]3O[C@H](CN)[C@@H](O)[C@@H](O)[C@H]3N)[C@@H](N)C[C@H]2NC(=O)[C@@H](O)CCN)O[C@H](CO)[C@H]1O` [ABX4005, 3′Epi-KanaB-AHB-Gua], for which the “MIC50” value is 32 to 64 µM.
Still for that read-out and setting: the result for `NCC[C@H](O)C(=O)N[C@@H]1CC(N)[C@@H](O[C@H]2OC(CN)[C@@H](O)CC2N)[C@H](O)C1OC1O[C@H](CO)[C@@H](O)C(N)[C@H]1O` (stereo partly shown) [ABX5004, Tobra-AHB] reads 32 µM (≈ 18.2 µg/mL); that for `NCC[C@H](O)C(=O)N[C@@H]1CC(N)[C@@H](O[C@H]2OC(CN)[C@@H](O)CC2N)[C@H](F)C1OC1O[C@H](CO)[C@@H](O)C(N)[C@H]1O` (stereo partly shown) [ABX5024, Tobra-AHB-F], 16 to 32 µM.
Turning to `N=C(NC[C@H]1CNCCO1)NC1[C@@H](O)C(OC2[C@@H](F)[C@H](O[C@H]3OC(CN)[C@@H](O)CC3N)C(N)C[C@H]2NC(=O)[C@@H](O)CCN)O[C@H](CO)[C@H]1O` (stereo partly drawn) [ABX5043, Tobra-AHB-F-Gua (R) morpholin-2-yl methyl], the MIC50 under setting [1] was 16 µM (≈ 11.4 µg/mL).
As to `NCCC(O)C(=O)NC1CC(N)C(OC2OC(CN)C(O)C(O)C2N)C(F)C1OC1OC(CO)C(O)C(N)C1O` (stereo not shown) [ABX4007, KanaB-AHB-F], the “MIC50” value is 32 to 64 µM.
Consider `N=C(NCc1cnc[nH]1)NC1[C@@H](O)C(OC2[C@@H](F)[C@H](O[C@H]3OC(CN)[C@@H](O)CC3N)C(N)C[C@H]2NC(=O)[C@@H](O)CCN)O[C@H](CO)[C@H]1O` (stereo partly shown) [ABX5050, Tobra-AHB-F-Gua imidazol-5-yl methyl], for which, under setting [1], the MIC50 was in the range of 8 to 16 µM (≈ 5.54 to 11.1 µg/mL).
Turning to `NCCC(O)C(=O)NC1CC(N)C(OC2OC(CN)C(O)C(O)C2O)C(F)C1OC1OC(CO)C(O)C(N)C1O` (stereo not drawn) [ABX3005, 3′Epi-KanaA-AHB-F], the “MIC50” value came out at 64 µM (≈ 37.6 µg/mL).
As to `N=C(N)NC1[C@@H](O)C(OC2[C@@H](F)[C@H](O[C@H]3OC(CN)[C@@H](O)[C@H](O)C3N)C(N)C[C@H]2NC(=O)[C@@H](O)CCN)O[C@H](CO)[C@H]1O` (stereo partly drawn) [ABX4004, 3′epi-KanaB-AHB-F-Gua], the “MIC50” value lay in the range of 16 to 32 µM.
On the same count and under the same terms, as for `NCCC(O)C(=O)NC1CC(N)C(OC2OC(CN)C(O)C(O)C2N)C(O)C1OC1OC(CO)C(O)C(N)C1O` (stereo not shown) [ABX4001, KanaB-AHB], the figure is 32 to 64 µM.
`N=C(N)NC1C(O)[C@@H](CO)OC(OC2C(F)[C@H](O[C@H]3OC(CN)[C@@H](O)CC3N)C(N)C[C@H]2NC(=O)[C@@H](O)CCN)[C@@H]1O` (stereo partly shown) [ABX5006, Tobra-AHB-F-Gua]: the MIC50 under setting [1] lay in the range of 4 to 8 µM (≈ 2.45 to 4.9 µg/mL).
The same measure, in the same setting: as for `N=C(NCC1CCOC1)NC1[C@@H](O)C(OC2[C@@H](F)[C@H](O[C@H]3OC(CN)[C@@H](O)CC3N)C(N)C[C@H]2NC(=O)[C@@H](O)CCN)O[C@H](CO)[C@H]1O` (stereo partly shown) [ABX5051, Tobra-AHB-F-Gua tetrahydrofuran-3-yl methyl], the figure is 8 µM (≈ 5.57 µg/mL).
Turning to `NCC[C@H](O)C(=O)N[C@@H]1CC(N)[C@@H](O[C@H]2OC(CN)[C@@H](O)[C@@H](O)C2N)[C@H](F)C1OC1O[C@H](CO)[C@@H](O)C(N)[C@H]1O` (stereo partly drawn) [ABX4003, 3′Epi-KanaB-AHB-F], the “MIC50” value was 64 µM (≈ 37.5 µg/mL).
`N=C(NCC1CC1)NC1[C@@H](O)C(OC2[C@@H](F)[C@H](O[C@H]3OC(CN)[C@@H](O)CC3N)C(N)C[C@H]2NC(=O)[C@@H](O)CCN)O[C@H](CO)[C@H]1O` (stereo partly shown) [ABX5027, Tobra-AHB-F-Gua cyclopropylmethyl]: the MIC50 under setting [1] amounted to 32 µM (≈ 21.3 µg/mL).
Consider `N=C(NC[C@@H]1CCNC1)NC1[C@@H](O)C(OC2[C@@H](F)[C@H](O[C@H]3OC(CN)[C@@H](O)CC3N)C(N)C[C@H]2NC(=O)[C@@H](O)CCN)O[C@H](CO)[C@H]1O` (stereo partly drawn) [ABX5039, Tobra-AHB-F-Gua (R) pyrrolidine-3-ylmethyl], for which the MIC50 under setting [1] came out at 16 µM (≈ 11.1 µg/mL).
Same read-out and setting: the result for `CNCCNC(=N)NC1[C@@H](O)C(OC2[C@@H](F)[C@H](O[C@H]3OC(CN)[C@@H](O)CC3N)C(N)C[C@H]2NC(=O)[C@@H](O)CCN)O[C@H](CO)[C@H]1O` (stereo partly shown) [ABX5038, Tobra-AHB-F-Gua 2-(methylamino)ethyl] reads 16 µM (≈ 10.7 µg/mL); that for `N=C(NCc1ccncc1)NC1[C@@H](O)C(OC2[C@@H](F)[C@H](O[C@H]3OC(CN)[C@@H](O)CC3N)C(N)C[C@H]2NC(=O)[C@@H](O)CCN)O[C@H](CO)[C@H]1O` (stereo partly shown) [ABX5048, Tobra-AHB-F-Gua pyridin-4-yl methyl], 8 µM (≈ 5.63 µg/mL).
With `N=C(N)NC1[C@@H](O)C(OC2[C@@H](O)[C@H](O[C@H]3OC(CN)[C@@H](O)CC3N)C(N)C[C@H]2NC(=O)[C@@H](O)CCN)O[C@H](CO)[C@H]1O` (stereo partly shown) [ABX5005, Tobra-AHB-Gua], the “MIC50” value turned out to be 16 µM (≈ 9.77 µg/mL).
Turning to `N=C(NCCCN)NC1[C@@H](O)C(OC2[C@@H](F)[C@H](O[C@H]3OC(CN)[C@@H](O)CC3N)C(N)C[C@H]2NC(=O)[C@@H](O)CCN)O[C@H](CO)[C@H]1O` (stereo partly shown) [ABX5030, Tobra-AHB-F-Gua-3-amino-propyl], under setting [1], the MIC50 worked out at 32 µM (≈ 21.4 µg/mL).
The same measure, in the same setting: as for `N=C(NCCO)NC1[C@@H](O)C(OC2[C@@H](F)[C@H](O[C@H]3OC(CN)[C@@H](O)CC3N)C(N)C[C@H]2NC(=O)[C@@H](O)CCN)O[C@H](CO)[C@H]1O` (stereo partly shown) [ABX5029, Tobra-AHB-F-Gua 2-hydroxy-ethyl], the figure is 64 µM (≈ 42 µg/mL).
With `N=C(NC[C@@H]1CCCN1)NC1[C@@H](O)C(OC2[C@@H](F)[C@H](O[C@H]3OC(CN)[C@@H](O)CC3N)C(N)C[C@H]2NC(=O)[C@@H](O)CCN)O[C@H](CO)[C@H]1O` (stereo partly drawn) [ABX5026, Tobra-AHB-F-Gua (S) pyrrolidine-2-yl-methyl], under setting [1], the MIC50 was found to be 32 µM (≈ 22.3 µg/mL).
Take `N=C(NC[C@H]1CCNC1)NC1[C@@H](O)C(OC2[C@@H](F)[C@H](O[C@H]3OC(CN)[C@@H](O)CC3N)C(N)C[C@H]2NC(=O)[C@@H](O)CCN)O[C@H](CO)[C@H]1O` (stereo partly drawn) [ABX5042, Tobra-AHB-F-Gua (S) pyrrolidine-3-ylmethyl]: under setting [1], the MIC50 turned out to be 8 µM (≈ 5.57 µg/mL).
